Experimental data taken from paper PMC6263113 (Journal of Enzyme Inhibition and Medicinal Chemistry, 2018).
“Also recorded” adds a separate entry of the source.

Columns and labels:
[1] = target: T1, AChE (Rattus norvegicus, UniProt P37136); test: In vitro AChE activity in rat hippocampus homogenate; assay type: biochemical
T1 sequence (P37136 32-614): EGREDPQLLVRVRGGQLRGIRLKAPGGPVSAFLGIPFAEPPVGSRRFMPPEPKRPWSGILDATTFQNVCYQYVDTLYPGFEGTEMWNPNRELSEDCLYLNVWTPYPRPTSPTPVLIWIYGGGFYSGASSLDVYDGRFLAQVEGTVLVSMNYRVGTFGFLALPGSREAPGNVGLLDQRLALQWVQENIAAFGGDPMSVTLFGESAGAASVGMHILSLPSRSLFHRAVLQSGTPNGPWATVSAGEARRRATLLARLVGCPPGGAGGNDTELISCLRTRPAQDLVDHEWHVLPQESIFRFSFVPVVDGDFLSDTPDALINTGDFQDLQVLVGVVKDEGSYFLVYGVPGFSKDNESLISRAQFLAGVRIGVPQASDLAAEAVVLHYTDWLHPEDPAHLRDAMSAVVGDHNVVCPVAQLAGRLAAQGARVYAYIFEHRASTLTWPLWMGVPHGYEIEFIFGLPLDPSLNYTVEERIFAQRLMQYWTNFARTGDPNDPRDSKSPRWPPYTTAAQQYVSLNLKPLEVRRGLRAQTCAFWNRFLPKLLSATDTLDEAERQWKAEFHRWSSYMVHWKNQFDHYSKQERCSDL

[2] = target: T1, AChE; test: In vitro AChE activity in rat cerebral cortex homogenate; assay type: biochemical; settings: read-out: inhibition of AChE activity
[3] = test system: MRC-5 (human fibroblast); test: Cytotoxicity in fibroblast culture by SRB test; assay type: cell-based; settings: 24 h
[4] = read-out: inhibition of AChE activity

Structure (SMILES): O=C1c2ccccc2SC(c2ccc([N+](=O)[O-])cc2)N1CCN1CCOCC1 (stereo not drawn) [5Ad, 3-(2-morpholinoethyl)-2-(4-nitrophenyl)-2,3-dihydro-4H-benzo[e][1,3]thiazin-4-one]
- IC50 [1]: 70.6 µM
- inhibition at 100 µM [1, 4]: 46.4%

Structure (SMILES): CCCCC1Sc2ccccc2C(=O)N1CCCN1CCCCC1 (stereo not drawn) [5Ba, 2-butyl-3-(3-(piperidin-1-yl)propyl)-2,3-dihydro-4H-benzo[e][1,3]thiazin-4-one]
- inhibition at 10 µM [2]: 27.1%
- IC50 [1]: 73.3 µM
- inhibition at 100 µM [1, 4]: 46.2%
- cytotoxicity (cell proliferation vs DMSO control) ([3]; 100 µM): noncytotoxic

Structure (SMILES): O=C1c2ccccc2SC(c2ccccc2)N1CCCN1CCCCC1 (stereo not drawn) [5Bb, 2-phenyl-3-(3-(piperidin-1-yl)propyl)-2,3-dihydro-4H-benzo[e][1,3]thiazin-4-one]
- inhibition at 10 µM [2]: 47.2%
- IC50 [1]: 39.8 µM
- inhibition at 50 µM [1, 4]: 50%

Structure (SMILES): O=C1c2ccccc2SC(c2ccc([N+](=O)[O-])cc2)N1CCCN1CCCCC1 (stereo not drawn) [5Bd, 2-(4-nitrophenyl)-3-(3-(piperidin-1-yl)propyl)-2,3-dihydro-4H-benzo[e] [1,3]thiazin-4-one]
- IC50 [1]: 39.8 µM
- cytotoxicity (cell proliferation vs DMSO control) ([3]; 100 µM): no cytotoxicity; also recorded: noncytotoxic
- cytotoxicity in human fibroblast cell (overall statement) [3]: low cytotoxicity

Structure (SMILES): O=C1c2ccccc2SC(c2ccc(F)cc2)N1CCCN1CCCCC1 (stereo not drawn) [5Bf, 2-(4-fluorophenyl)-3-(3-(piperidin-1-yl)propyl)-2,3-dihydro-4H-benzo[e][1,3]thiazin-4-one]
- IC50 [1]: 61.7 µM

Structure (SMILES): O=C1c2ccccc2SC(c2ccc([N+](=O)[O-])cc2)N1CCN1CCCCC1 (stereo not drawn) [5Cd, 2-(4-nitrophenyl)-3-(2-(piperidin-1-yl)ethyl)-2,3-dihydro-4H-benzo[e] [1,3]thiazin-4-one]
- IC50 [1]: 119 µM
- cytotoxicity (cell proliferation vs DMSO control) ([3]; 50 µM (lowest concentration tested)): showed toxicity
